Experimental data: patent US20140363898A1, “METHOD FOR THE IDENTIFICATION OF BETA-SHEET AGGREGATED PROTEIN LIGANDS” (Hoffmann-La Roche Inc., priority 2011, published 2014)

Columns and labels:
[1] = molecular target: T1, aggregated Tau (recombinant human microtubule associated protein Tau) (Homo sapiens, UniProt P10636); assay: Thiazine-red fluorescence displacement assay on aggregated tau; settings: displacement of Thiazin-red at the high affinity binding site; compound 0.3 nM to 10000 nM; 30 min room temperature; average of different experiments; read-out: aggr. TAU IC50
T1 construct: made in house; host or cells: E. coli
T1 sequence (P10636 1-441 isoform P10636-8): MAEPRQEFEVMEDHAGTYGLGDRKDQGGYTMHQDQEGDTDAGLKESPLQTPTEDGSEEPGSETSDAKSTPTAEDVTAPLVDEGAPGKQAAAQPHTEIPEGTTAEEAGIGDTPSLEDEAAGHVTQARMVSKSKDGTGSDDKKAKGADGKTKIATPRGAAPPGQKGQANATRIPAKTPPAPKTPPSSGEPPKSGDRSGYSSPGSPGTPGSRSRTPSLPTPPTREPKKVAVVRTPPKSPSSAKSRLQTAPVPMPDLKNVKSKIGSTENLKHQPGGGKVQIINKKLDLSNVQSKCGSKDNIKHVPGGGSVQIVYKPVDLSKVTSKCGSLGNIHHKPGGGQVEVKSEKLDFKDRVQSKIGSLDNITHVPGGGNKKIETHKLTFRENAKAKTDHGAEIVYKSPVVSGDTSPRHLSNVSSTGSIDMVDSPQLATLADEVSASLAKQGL
Method: (§1) Recombinant human-microtubule associated protein Tau purified from E. coli is aggregated at a concentration of 5 μM with Arachidonic Acid (100 μM) in Tris 10 mM pH8, 24h at 37° C. Synthetic Aβ40 is aggregated with Arachidonic Acid (100 μM) in Tris 10 mM pH8, for three days at 37° C., under shaking at 150 rpm. […] In parallel, auto fluorescence of the compound is measured together with the aggregated proteins, but without Thiazin-red. As negative control, ligand and aggregated protein is used and as positive control, Thiazin-red, reference compound with known activity and aggregated protein is used. Assay is performed in Perkin Elmer OptiPlate 384, black, 45 ul assay volume, assay buffer is DPBS no CaCl2 no MgCl2 (GIBCO N. 14020). Tested compounds are diluted in DMSO and 2 μl is added to the assay (5% DMSO final). Assay is started by the addition of the aggregated protein (competitive condition). Plates are shortly shacked (1 min with Sterico variomag teleshake) and incubated for 30 min at room temperature. Measurement are done with En:Vision (Perkin Elmer), at Excitation 531 nm/Emission 595 nm.

[2] = molecular target: T2, aggregated Aβ40 (synthetic) (Homo sapiens, UniProt P05067); assay: Thiazine-red fluorescence displacement assay on aggregated Aβ40; settings: displacement of Thiazin-red at the high affinity binding site; compound 0.3 nM to 10000 nM; 30 min room temperature; average of different experiments; read-out: aggr. Aβ40 IC50
T2 construct: Id; No. 4; host or cells: synthetic peptide
T2 sequence (P05067 672-711): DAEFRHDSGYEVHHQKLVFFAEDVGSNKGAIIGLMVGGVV
Method: as §1

[3] = molecular target: T3, aggregated alpha-synuclein (human recombinant) (Homo sapiens, UniProt P37840); assay: Thiazine-red fluorescence displacement assay on aggregated alpha-synuclein; settings: displacement of Thiazin-red at the high affinity binding site; compound 0.3 nM to 10000 nM; 30 min room temperature; average of different experiments; read-out: aggr. α-syn IC50
T3 construct: made in house; host or cells: E. coli
Method: Human recombinant-Alpha-synuclein-purified from E. coli is aggregated with Arachidonic Acid (100 μM) in Tris 10 mM pH 8, for 5 days at 37° C., under shaking at 150 rpm.
Thiazin-red will be added at the concentration corresponding to the Kd to the respective aggregated protein binding site, to induce a fluorescent signal that can be inhibited by the addition of a displacer compound
In parallel, auto fluorescence of the compound is measured together with the aggregated proteins, but without Thiazin-red. As negative control, ligand and aggregated protein is used and as positive control, Thiazin-red, reference compound with known activity and aggregated protein is used.
Assay is performed in Perkin Elmer OptiPlate 384, black, 45 ul assay volume, assay buffer is DPBS no CaCl2 no MgCl2 (GIBCO N. 14020). Tested compounds are diluted in DMSO and 2 μl is added to the assay (5% DMSO final). Assay is started by the addition of the aggregated protein (competitive condition). Plates are shortly shacked (1 min with Sterico variomag teleshake) and incubated for 30 min at room temperature. Measurement are done with En:Vision (Perkin Elmer), at Excitation 531 nm/Emission 595 nm.

`CNc1ccc(-c2nc3ccc(O)cc3s2)cn1` [AZD2184] gave an IC50 [1] of 9800 nM, an IC50 [2] of over 10000 nM and an IC50 [3] of over 10000 nM.

`CNc1ccc(-c2ccc3ccccc3n2)cc1` [BF-158] was tested, and the IC50 [1] was over 10000 nM, the IC50 [2] was over 10000 nM and the IC50 [3] was over 10000 nM.

`O=C(O)c1cc(/C=C/c2ccc(/C=C/c3ccc(O)c(C(=O)O)c3)c(Br)c2)ccc1O` [BSB] gave an IC50 [1] of 18.4 nM, an IC50 [2] of 78.4 nM and an IC50 [3] of 36.3 nM.

In the case of `Nc1c(/N=N/c2ccc(-c3ccc(/N=N/c4cc(S(=O)(=O)O)c5ccccc5c4N)cc3)cc2)cc(S(=O)(=O)O)c2ccccc12` [Congo Red], the IC50 [1] is reported as 5.4 nM, the IC50 [2] is reported as 13.6 nM and the IC50 [3] is reported as 4.4 nM.

`CN(C)c1ccc(C(=C2C=CC(=[N+](C)C)C=C2)c2ccc(N(C)C)cc2)cc1` [Crystal Violet] was tested, and the IC50 [1] was 1550 nM, the IC50 [2] was 1280 nM and the IC50 [3] was 1720 nM.

`Cc1cc(-c2ccc(/N=N/c3ccc4c(S(=O)(=O)O)cc(S(=O)(=O)O)c(N)c4c3O)c(C)c2)ccc1/N=N/c1ccc2c(S(=O)(=O)O)cc(S(=O)(=O)O)c(N)c2c1O` [Evans Blue] gave an IC50 [1] of 1 nM, an IC50 [2] of 88.8 nM and an IC50 [3] of 7.6 nM.

`CC(=C(C#N)C#N)c1ccc2cc(N(C)CCF)ccc2c1` [FDDNP] showed an IC50 [1] of 1640 nM, an IC50 [2] of 1470 nM and an IC50 [3] of 1180 nM.

Work on `CN(C)c1ccc(-c2cn3cc(I)ccc3n2)cc1` [IMPY] yielded an IC50 [1] of 2710 nM and an IC50 [3] of 5700 nM.

In the case of `COc1cc(/C=C/c2ccc(O)cc2)ccc1/C=C/c1ccc(O)cc1` [MeXO4], the IC50 [1] is reported as 494 nM, the IC50 [2] is reported as 307 nM and the IC50 [3] is reported as 239 nM.

In the case of `CNc1ccc(-c2nc3ccc(O)cc3s2)cc1` [PIB], the IC50 [1] is reported as 3260 nM and the IC50 [3] is reported as 7020 nM.
